Bounds are passed on as bounds.

The test system of this assay is Endogenous Huntingtin Protein (capture with MW1 (expanded polyglutamine) or MAB2166 antibody). Kind of assay: Endogenous Huntingtin Protein Assay (ELISA-based Meso Scale Discovery electrochemiluminescence assay). The following applies: MSD electrochemiluminescence platform. Type of assay: cell-based. The procedure: Compounds of Formula (I), Formula (II), or Formula (III) were tested using the Meso Scale Discovery (MSD) Assay provided in International Application No. PCT/US2016/066042, filed on Dec. 11, 2016 and claiming priority to U.S. Provisional Application U.S. 62/265,652 filed on Dec. 10, 2015, the entire contents of which are incorporated herein by reference.
The Endogenous Huntingtin Protein assay used in Example 1 was developed using the ELISA-based MSD electrochemiluminescence assay platform.
Meso Scale Discovery (MSD) 96-well or 384-well plates were coated overnight at 4° C. with MW1 (expanded polyglutamine) or MAB2166 monoclonal antibody (for capture) at a concentration of 1 μg/mL in PBS (30 μL per well). Plates were then washed three times with 300 μL wash buffer (0.05% Tween-20 in PBS) and blocked (100 μL blocking buffer; 5% BSA in PBS) for 4-5 hours at room temperature with rotational shaking and then washed three times with wash buffer.
Samples (25 μL) were transferred to the antibody-coated MSD plate and incubated overnight at 4° C. After removal of the lysates, the plate was washed three times with wash buffer, and 25 μL of #5656S (Cell signaling; rabbit monoclonal) secondary antibody (diluted to 0.25 μg/mL in 0.05% Tween-20 in blocking buffer) was added to each well and incubated with shaking for 1 Hour at room temperature. Following incubation with the secondary antibody, the wells were rinsed with wash buffer after which 25 μL of goat anti-rabbit SULFO TAG secondary detection antibody (required aspect of the MSD system) (diluted to 0.25 μg/mL in 0.05% Tween-20 in blocking buffer) was added to each well and incubated with shaking for 1 hour at room temperature. After rinsing three times with wash buffer, 150 μL of read buffer T with surfactant (MSD) were added to each empty well, and the plate was imaged on a SI 6000 imager (MSD) according to manufacturers' instructions provided for 96- or 384-well plates.
In general terms: An ELISA detects its analyte on a solid surface through an enzyme-linked reagent.
“2-(3-{[(3R,4R)-3-fluoro-2,2,6,6-tetramethylpiperidin-4-yl]amino}-1,2,4-triazin-6-yl)-5-[1-(^2H3)methyl-1H-pyrazol-4-yl]pyridin-3-ol and 2-(3-{[(3S,4S)-3-fluoro-2,2,6,6-tetramethylpiperidin-4-yl]amino}-1,2,4-triazin-6-yl)-5-[1-(^2H3)methyl-1H-pyrazol-4-yl]pyridin-3-ol [Compound 140]” returned an IC50 not above 100 nM.
With “2-(3-{[(3S,4S)-3-fluoro-2,2,6,6-tetramethylpiperidin-4-yl]amino}-1,2,4-triazin-6-yl)-5-(1H-pyrazol-4-yl)pyridin-3-ol and 2-(3-{[(3R,4R)-3-fluoro-2,2,6,6-tetramethylpiperidin-4-yl]amino}-1,2,4-triazin-6-yl)-5-(1H-pyrazol-4-yl)pyridin-3-ol [Compound 139]”, the IC50 is not above 100 nM.
Consider “2-(6-{[(1R,3s,5S)-1,5-dimethyl-8-azabicyclo[3.2.1]octan-3-yl]oxy}pyridazin-3-yl)-5-(1H-1,2,3-triazol-1-yl)pyridin-3-ol and 2-(6-{[(1S,3r,5R)-1,5-dimethyl-8-azabicyclo[3.2.1]octan-3-yl]oxy}pyridazin-3-yl)-5-(1H-1,2,3-triazol-1-yl)pyridin-3-ol [Compound 71]”, for which the IC50 fell in the range of 100 to 500 nM.
To “2-(6-{[(3R,4R)-3-fluoro-2,2,6,6-tetramethylpiperidin-4-yl]amino}pyridazin-3-yl)-5-[1-(^2H3)methyl-1H-pyrazol-4-yl]pyridin-3-ol or 2-(6-{[(3S,4S)-3-fluoro-2,2,6,6-tetramethylpiperidin-4-yl]amino}pyridazin-3-yl)-5-[1-(^2H3)methyl-1H-pyrazol-4-yl]pyridin-3-ol [Compound 19]” belongs not above 100 nM.
“2-(6-{[(3R,4S)-3-fluoro-2,2,6,6-tetramethylpiperidin-4-yl]oxy}pyridazin-3-yl)-5-(1H-pyrazol-4-yl)pyridin-3-ol and 2-(6-{[(3S,4R)-3-fluoro-2,2,6,6-tetramethylpiperidin-4-yl]oxy}pyridazin-3-yl)-5-(1H-pyrazol-4-yl)pyridin-3-ol [Compound 6]” returned an IC50 not above 100 nM.
Regarding “2-(6-{[(3R,4S)-3-fluoro-2,2,6,6-tetramethylpiperidin-4-yl]oxy}pyridazin-3-yl)-5-(2-methyl[1,2,4]triazolo[1,5-a]pyridin-6-yl)pyridin-3-ol and 2-(6-{[(3S,4R)-3-fluoro-2,2,6,6-tetramethylpiperidin-4-yl]oxy}pyridazin-3-yl)-5-(2-methyl[1,2,4]triazolo[1,5-a]pyridin-6-yl)pyridin-3-ol [Compound 55]”, the half-maximal inhibitory concentration (IC50) was not above 100 nM.
To “2-(6-{[(3R,4S)-3-fluoro-2,2,6,6-tetramethylpiperidin-4-yl]oxy}pyridazin-3-yl)-5-(2-methylimidazo[1,2-a]pyridin-6-yl)pyridin-3-ol and 2-(6-{[(3S,4R)-3-fluoro-2,2,6,6-tetramethylpiperidin-4-yl]oxy}pyridazin-3-yl)-5-(2-methylimidazo[1,2-a]pyridin-6-yl)pyridin-3-ol [Compound 43]” belongs not above 100 nM.
With “2-(6-{[(3R,4S)-3-fluoro-2,2,6,6-tetramethylpiperidin-4-yl]oxy}pyridazin-3-yl)-5-(2-methylimidazo[1,2-a]pyrimidin-6-yl)pyridin-3-ol and 2-(6-{[(3S,4R)-3-fluoro-2,2,6,6-tetramethylpiperidin-4-yl]oxy}pyridazin-3-yl)-5-(2-methylimidazo[1,2-a]pyrimidin-6-yl)pyridin-3-ol [Compound 54]”, the IC50 was not above 100 nM.
Consider “2-(6-{[(3R,4S)-3-fluoro-2,2,6,6-tetramethylpiperidin-4-yl]oxy}pyridazin-3-yl)-5-(2-methylimidazo[1,2-b]pyridazin-6-yl)pyridin-3-ol and 2-(6-{[(3S,4R)-3-fluoro-2,2,6,6-tetramethylpiperidin-4-yl]oxy}pyridazin-3-yl)-5-(2-methylimidazo[1,2-b]pyridazin-6-yl)pyridin-3-ol [Compound 48]”, for which the IC50 was not above 100 nM.
To “2-(6-{[(3R,4S)-3-fluoro-2,2,6,6-tetramethylpiperidin-4-yl]oxy}pyridazin-3-yl)-5-(4-methyl-1H-imidazol-1-yl)pyridin-3-ol and 2-(6-{[(3S,4R)-3-fluoro-2,2,6,6-tetramethylpiperidin-4-yl]oxy}pyridazin-3-yl)-5-(4-methyl-1H-imidazol-1-yl)pyridin-3-ol [Compound 41]” belongs 100 to 500 nM; to “2-(6-{[(3R,4S)-3-fluoro-2,2,6,6-tetramethylpiperidin-4-yl]oxy}pyridazin-3-yl)-5-(imidazo[1,2-a]pyrazin-6-yl)pyridin-3-ol and 2-(6-{[(3S,4R)-3-fluoro-2,2,6,6-tetramethylpiperidin-4-yl]oxy}pyridazin-3-yl)-5-(imidazo[1,2-a]pyrazin-6-yl)pyridin-3-ol [Compound 66]”, 100 to 500 nM; to “2-(6-{[(3R,4S)-3-fluoro-2,2,6,6-tetramethylpiperidin-4-yl]oxy}pyridazin-3-yl)-5-(imidazo[1,2-b]pyridazin-6-yl)pyridin-3-ol and 2-(6-{[(3S,4R)-3-fluoro-2,2,6,6-tetramethylpiperidin-4-yl]oxy}pyridazin-3-yl)-5-(imidazo[1,2-b]pyridazin-6-yl)pyridin-3-ol [Compound 49]”, not above 100 nM.
“2-(6-{[(3R,4S)-3-fluoro-2,2,6,6-tetramethylpiperidin-4-yl]oxy}pyridazin-3-yl)-5-[2-methyl-8-(trifluoromethyl)imidazo[1,2-a]pyridin-6-yl]pyridin-3-ol and 2-(6-{[(3S,4R)-3-fluoro-2,2,6,6-tetramethylpiperidin-4-yl]oxy}pyridazin-3-yl)-5-[2-methyl-8-(trifluoromethyl)imidazo[1,2-a]pyridin-6-yl]pyridin-3-ol [Compound 46]”: the IC50 is 100 to 500 nM.
Substance “2-(6-{[(3S,4S)-3-fluoro-2,2,6,6-tetramethylpiperidin-4-yl]amino}pyridazin-3-yl)-5-(1H-pyrazol-3-yl)pyridin-3-ol and 2-(6-{[(3R,4R)-3-fluoro-2,2,6,6-tetramethylpiperidin-4-yl]amino}pyridazin-3-yl)-5-(1H-pyrazol-3-yl)pyridin-3-ol [Compound 16]” displayed an IC50 not above 100 nM.
For “2-{3-[(3R)-3-(tert-butylamino)pyrrolidin-1-yl]-1,2,4-triazin-6-yl}-5-(2,8-dimethylimidazo[1,2-b]pyridazin-6-yl)pyridin-3-ol [Compound 149]”, the IC50 was not above 100 nM.
As for “2-{6-[(3R)-(tert-butylamino)pyrrolidin-1-yl]pyridazin-3-yl}-5-(1-methyl-1H-pyrazol-3-yl)pyridin-3-ol and 2-{6-[(3S)-(tert-butylamino)pyrrolidin-1-yl]pyridazin-3-yl}-5-(1-methyl-1H-pyrazol-3-yl)pyridin-3-ol [Compound 17]”, the figure is 500 to 1000 nM.
As for “2-{6-[(3R,5R)-3,5-dimethylpiperazin-1-yl]pyridazin-3-yl}-5-(7-fluoro-2-methyl-2H-indazol-5-yl)pyridin-3-ol and 2-{6-[(3S,5R)-3,5-dimethylpiperazin-1-yl]pyridazin-3-yl}-5-(7-fluoro-2-methyl-2H-indazol-5-yl)pyridin-3-ol [Compound 106]”, the figure is not above 100 nM; as for “2-{6-[(3S)-3-(propan-2-yl)piperazin-1-yl]pyridazin-3-yl}-5-(1H-pyrazol-4-yl)pyridin-3-ol and 2-{6-[(3R)-3-(propan-2-yl)piperazin-1-yl]pyridazin-3-yl}-5-(1H-pyrazol-4-yl)pyridin-3-ol [Compound 121]”, not above 100 nM; as for “5-(1H-pyrazol-4-yl)-2-{6-[(3R,5S)-3,4,5-trimethylpiperazin-1-yl]pyridazin-3-yl}pyridin-3-ol and 5-(1H-pyrazol-4-yl)-2-{6-[(3S,5R)-3,4,5-trimethylpiperazin-1-yl]pyridazin-3-yl}pyridin-3-ol [Compound 90]”, 100 to 500 nM.
In the case of “5-(2,4-dimethyl-1,3-benzoxazol-6-yl)-2-(6-{[(3R,4S)-3-fluoro-2,2,6,6-tetramethylpiperidin-4-yl]oxy}pyridazin-3-yl)pyridin-3-ol and 5-(2,4-dimethyl-1,3-benzoxazol-6-yl)-2-(6-{[(3S,4R)-3-fluoro-2,2,6,6-tetramethylpiperidin-4-yl]oxy}pyridazin-3-yl)pyridin-3-ol [Compound 56]”, the IC50 is not above 100 nM.
To “5-(2,8-dimethylimidazo[1,2-a]pyridin-6-yl)-2-(6-{[(3R,4S)-3-fluoro-2,2,6,6-tetramethylpiperidin-4-yl]oxy}pyridazin-3-yl)pyridin-3-ol and 5-(2,8-dimethylimidazo[1,2-a]pyridin-6-yl)-2-(6-{[(3S,4R)-3-fluoro-2,2,6,6-tetramethylpiperidin-4-yl]oxy}pyridazin-3-yl)pyridin-3-ol [Compound 44]” belongs not above 100 nM.

One may read the IC50 as the concentration needed to halve the response being measured. High values mean a need for much substance, low ones inhibition by little substance.

The values above are taken from patent publication US12577226B2, “Compounds for treating Huntington's disease” (PTC THERAPEUTICS, INC., priority 2019, dated 2026).
